Data reported in patent US20130149721A1, “Methods for Inhibiting Amyloid Precursor Protein and Beta-Amyloid Production and Accumulation” (WISCONSIN ALUMNI RESEARCH FOUNDATION, priority 2008, published 2013).

Assays:
APP translation in SN = assay: 35S-Met labeling and immunoprecipitation of newly synthesized APP in synaptoneurosomes; assay type: cell-based, mouse; details: WT SN
Description: WT and KO SNs (450 μl) were mixed with 25 μl Redivue Pro-Mix-L [^35S] for 5 min prior to stimulation with 25 μl 2 mM DHPG. Samples were flash frozen at the indicated times. To analyze new protein synthesis, SN lysates were cleared of free isotope, Percoll®, and sucrose by purification with the PAGEprep Advance kit according to the manufacturer's directions. Protein concentrations were determined by the BCA assay, and 15 μg protein was denatured and loaded per lane on 12% SDS gels for content analysis. Gels were dried and exposed to a phosphorimager screen to identify the results of these assays.
To specifically analyze APP synthesis, WT and KO SN lysates (500 μl) were immunoprecipitated with APP antibody. Briefly, SN lysates were precleared with protein A magnetic beads in 1 ml volumes containing 500 μl SNs, 500 μl 2×IP buffer (20 mM HEPES (pH 7.4), 400 mM NaCl, 60 mM EDTA (pH 8), and 2% Triton X-100), protease inhibitor cocktail, and 100 μl packed fresh protein A magnetic beads. For the immunoprecipitations, 10 μg anti-APP antibody (Zymed catalog number 51-2700) and fresh protein A magnetic beads were added and mixed overnight at 4° C. The beads were washed three times with IP buffer, and the final, washed pellets were suspended in 40 μl 2×SDS sample buffer and boiled for 5 min; the proteins were then separated on 12% SDS gels. The gels were transferred to a nitrocelluose membrane, dried, exposed to a phosphorimager screen, and scanned on a STORM 860 phosphorimager (Molecular Dynamics http://www6.amershambiosciences.com). APP bands at 120 kDa were quantitated with ImageQuant software (GE Healthcare Life Sciences, http://www4.amershambiosciences.com).
For mGluR5 inhibitor studies, SNs (425 μl) were preincubated with 25 μl anisomycin (40 μM final concentration) or MPEP (10 μM final concentration) for 10 min prior to the addition of 25 μl ^35S-Met for 5 min and stimulation with DHPG (100 μM final concentration) for 15 min. Samples were processed as described in the preceding paragraph.
To further assess FMRP regulation of APP levels in brain, cortical SN were prepared from WT mice and overall protein synthesis analyzed in response to DHPG (100 μM)-induced mGluR5 activation. SN were metabolically active as assessed by ^35S-Met incorporation. […]
These conclusions were tested by assessing the effects on APP translation of contacting SN with a group 1 mGluR5 antagonist, 2-methyl-6-(phenylethynyl)-pyridine (MPEP). […] To assess the effect of MPEP, a specific mGluR5 antagonist, on DHPG stimulation of de novo APP synthesis, SN were pre-treated with 10 μM MPEP for 10 min prior to the addition of ^35S-Met for 5 min and stimulation with 100 μM DHPG for 15 min. ^35S-Met-labeled APP was immunoprecipitated with anti-APP antibodies and analyzed by SDS-PAGE. […]

[1] = test system: dendritic APP in primary neuronal cells; assay: Immunofluorescence confocal quantitation of dendritic APP in primary cortical neurons; assay type: cell-based, mouse
Description: Pregnant female mice at embryonic day 18 (E18) were anesthetized with halothane prior to decapitation and transfer of the uterine sac to ice-cold HBSS. […] Cells were counted by trypan blue dye exclusion and plated at 1.25×10^5 cells/ml on poly(D)-lysine-coated glass coverslips in 12-well tissue-culture dishes and cultured for 11 d at 37° C./5% CO2. Half of the culture medium was removed and replaced with fresh, warm medium on day 4. […] All washes and antibody dilutions were in PBS containing 2% FBS. […] Images were acquired with a Nikon C1 laser-scanning confocal microscope with EZ-C1 v2.20 software (Nikon, http://www.nikon.com) at 60× magnification. APP levels in the puncta of four to seven dendrites per sample were quantitated with IMAGE J software using the Analyze Particles function (minimum of 205 puncta analyzed per treatment) (Rasband, Image J, U.S. National Institutes of Health, http://rsb.info.nih.gov/ij; 1997-2006). Figures were assembled with Adobe Photoshop 8.0 (Adobe Systems, http://www.adobe.com). […] It was recognized that SN are a relatively crude preparation of pre- and post-synaptic dendrites that are contaminated with other cell types, such as astrocytes, which form synapses with neurons. Thus, primary E18 cortical neuron cultures were prepared from WT and Fmr-1 KO brains and dendritic APP levels assessed using an immunofluorescence assay. There was a 21% increase in the basal level of APP in untreated dendrites from Fmr-1 KO neurons compared to WT (FIG. 5B). […] Staining of dendritic puncta was analyzed by confocal microscopy and quantitated with Image J software using the Analyze Particles function (a minimum of 475 particles were analyzed per treatment) (Rasband, W. S., Image J, U.S. National Institutes of Health, http://rsb.info.nih.gov/ij; 1997-2006). Duplicate slides were stained for each treatment and the number and intensity of dendritic puncta from three areas of each slide were analyzed and averaged. All MPEP-treated samples were statistically different from untreated controls by t-test analyses (p<0.005) and expressed as standard error of the mean (SEM).

[2] = test system: anxiety phenotype in Fmr-1 KO mice; details: intraperitoneal injections; cited from earlier work
[3] = WT primary neuronal cells, 10 μM MPEP

SMILES | increase in APP translation (APP translation in SN; 100 μM DHPG, 15 min) | increase in APP translation over control (APP translation in SN; 100 μM DHPG, 1 hr) | increase in dendritic APP levels ([1]; Fmr-1 KO cultures, DHPG 10 and 20 min) | increase in dendritic APP levels ([1]; WT neurons, 100 μM DHPG, 10 and 20 min) | effect on DHPG-mediated synthesis of APP (APP translation in SN; 10 μM MPEP pre-treatment 10 min, 100 μM DHPG 15 min) | decrease in dendritic APP (average particle intensity) ([1]; WT C57BL/6 primary neuronal cells, 10 μM MPEP, 15 min) | decrease in area of each particle [1, 3] | increase in number of particles in a defined area [1, 3] | decrease in dendritic APP at later times ([1]; WT primary neuronal cells, 10 μM MPEP, 4 hr and 1 day) | effect on anxiety phenotype [2]
N[C@@H](C(=O)O)c1cc(O)cc(O)c1 (racemic) [DHPG, (R,S)-3,5-dihydroxyphenylglycine] | 2.7 fold | 1.6 fold | no increase | 18-25% |  |  |  |  |  | 
Cc1cccc(C#Cc2ccccc2)n1 [MPEP, 2-methyl-6-(phenylethynyl)pyridine] |  |  |  |  | blocked | 37% | 22% | 29% | persisted | reduce
